The text below walks through data of article PMC10853860 (2023).

Each structure is given as a SMILES string.

In assay [1] the test system is T. ilyis ldcC SAM-I variant riboswitch WT (TiltrxWT) (RNA, riboswitch) AAAAUAUCUCUUAUUAAUAGCCGUUGAGACGAGGGGUCGAAGAUACGGUGGCAAACCAAUCAAUCCAAUUUUUUUGCAGUACGGAUUGAUAUUGGGUGCCCAACCUGAGCGUAGGAUUAUCCAAGUCCUAUGAGCAAUAAGAGGAAAAGCAGCUGAUAGAUAUCGAAGCUUUCCUUUGGUUGGAGAGCUUUUUUUAUGCCCAUUUUUUAUAUCAAAGGGGGAAAUCUAU
The assay is described as follows: single-round transcription termination. The note with it: 100 mM KCl, 2 mM MgCl2, 20 mM Tris-HCl pH 8.0, 37 °C; for binding: 1 mM tested, no termination increase; for T50: E. coli RNA polymerase, apparent.

For assay [2], the system named is 135 metK RNA (RNA, riboswitch) GGUCUAUCUUAUUAAUAGCCGUUGAGACGAGGGGUCGAAGAAGCGGUGGCAAACCAGUCCAAAUCAAUGAUUUGGAUAUGGGGCCCAACCUGAGCGCAGAGCUUUUCUGUUCUGUGAACAAUAAGAGGAUAAGCAG
The assay is described as follows: in-line probing. The following applies: 100 mM KCl, 2 mM MgCl2, 50 mM Tris-HCl pH 7.5, ~20 °C, apparent.

Assay [3] relates to T. ilyis hypo consensus SAM-I riboswitch (TilconsSAMItrx) (RNA, riboswitch) AAAAUAACUUCUUUAUCACGAGAGAUUGAGGGACUGGCCCGAUGACAUCUCAGCAACCGACCCACGCGUAACGCGGCGGCACGGUGCUAAAUCCUGCAGAGUAAUCUGAGAGAUAAGAAGAGCAAAUCGACAUUCCCGACUCUUCUUGUUAUAAGAAGGGUUUUUUGUUUUCAAAAAAACAAUCUGGAGGGAAAAACG
The assay is described as follows: single-round transcription termination. The following applies: 100 mM KCl, 2 mM MgCl2, 20 mM Tris-HCl pH 8.0, 37 °C.

Assay [4] has as its system T. ilyis ldcC M9 (TiltrxshortP1) (RNA, riboswitch) AAUUAAUAGCCGUUGAGACGAGGGGUCGAAGAUACGGUGGCAAACCAAUCAAUCCAAUUUUUUUGCAGUACGGAUUGAUAUUGGGUGCCCAACCUGAGCGUAGGAUUAUCCAAGUCCUAUGAGCAAUAAGAGGAAAAGCAGCUGAUAGAUAUCGAAGCUUUCCUUUGGUUGGAGAGCUUUUUUUAUGCCCAUUUUUUAUAUCAAAGGGGGAAAUCUAU
Nature of the assay: single-round transcription termination. The following applies: 100 mM KCl, 2 mM MgCl2; 20 mM Tris-HCl pH 8.0, 37 °C; no termination response.

Assay [5] has as its system 135 metK M14 (RNA, riboswitch) GGUCUAUCUUAUUAAAAGCCGUUGAGACGAGGGGUCGAAGAAGCGGUGGCAUACCAGUCCAAAUCAAUGAUUUGGAUAUGGGGCCAAACCUGAGCGCAGAGCUUUUCUGUUCUGUGAACAAUAAGAGGAUAAGCAG
Nature of the assay: in-line probing. The following applies: 100 mM KCl, 2 mM MgCl2; 50 mM Tris-HCl pH 7.5, ~20 °C; 1 and 5.6 mM tested.

For assay [6], the system named is (RNA, riboswitch) AAAAUAUCUCUUAUUAAUAGCCGUUGAGACGAGGGGUCGAAGAUACGGUGGCAAACCAAUCAAUCCAAUUUUUUUGCAGUACGGAUUGAUAUUGGGUGCCCAACCUGAGCGUAGGAUUAUCCAAGUCCUAUGAGCAAUAAGAGGAAAAGCAGCUGAUAGAUAUCGAAGCUUUCCUUUGGUUGGAGAGCUUUUUUUAUGCCCAUUUUUUAUAUCAAAGGGGGAAAUCUAU
The assay is described as follows: single-round transcription termination. The note with it: 100 mM KCl, 2 mM MgCl2; 20 mM Tris-HCl pH 8.0, 37 °C; 1 mM tested; no termination increase.

Consider `CC(=O)NCCCNCCCCN`, for which the binding entry in assay [1] was “no”.

Take `CC(=O)NCCCNCCCCNCCCN`: in assay [2] (Hill 1.5), the KD is given as ~ 860 μM.

Turning to `CCCNCCCN`, the binding result in assay [1] is recorded as “no”.

`CCNCCCN`: the binding entry in assay [1] is given as “no”.

As for `CNCCCN`, in assay [1], the binding result is “no”.

`CSC[C@H]1O[C@@H](n2cnc3c(N)ncnc32)[C@H](O)[C@@H]1O`: the binding entry in assay [1] is listed as “no”.

Consider `C[S+](CC[C@H](N)C(=O)O)C[C@H]1O[C@@H](n2cnc3c(N)ncnc32)[C@H](O)[C@@H]1O` (some centres unmarked), for which the binding result is on record as “no” in assay [1] and “yes” in assay [3] (1 mM SAM, strong termination).

As for `NCCCCNCCCN`, the binding result is “no” in assay [4]; “weak” in assay [5]; “no” in assay [3] (1 mM tested, no termination response). Moreover, the T50 in assay [1] turned out to be 214 µM. For the same molecule, the KD in assay [2] (Hill 1.4, replicate ~730 μM) is reported as ~ 670 μM.

Consider `NCCCN`, for which the binding result in assay [1] is on record as “no”.

Turning to `NCCCNCCCCNCCCN`, the T50 in assay [1] came to 79 µM. The KD in assay [2] (Hill 1.4) was ~ 340 μM.

With `NCCCSC[C@H]1O[C@@H](n2cnc3c(N)ncnc32)[C@H](O)[C@@H]1O`, in assay [6], the binding entry is “no”.
